Laboratory results: PubChem BioAssay (NCI)
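Tested at 5 concentrations; 48 h exposure; 96-well plates; endpoints linearly interpolated, else capped at highest concentration. TGI is the concentration that stops growth completely.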

How the values were obtained:
Assay in all cases: NCI tumour cell line growth inhibition, 48 h
[1] = test system: MDA-N
[2] = test system: MALME-3M melanoma
[3] = test system: HL-60(TB) leukemia
[4] = test system: A549 NSCLC
[5] = test system: M14 melanoma
[6] = test system: SNB-19 CNS
[7] = test system: IGROV1 ovarian
[8] = test system: BT-549 breast
[9] = test system: 786-0 renal
[10] = test system: CCRF-CEM leukemia
[11] = test system: SK-OV-3 ovarian
[12] = test system: LOX IMVI melanoma
[13] = test system: OVCAR-4 ovarian
[14] = test system: SF-268 CNS
[15] = test system: HS 578T breast
[16] = test system: TK-10 renal
[17] = test system: K-562 leukemia
[18] = test system: HCC-2998 colon
[19] = test system: MDA-MB-231 breast

Measured: TGI

O=c1[nH]nc(-c2ccccc2)n1/N=C/c1ccco1
94.2 µM: [8]
> 100 µM: [1] | [2] | [3] | [4] | [5] | [6] | [7] | [9] | [10] | [11] | [12] | [13] | [14] | [15] | [16]

O/N=C1\CC2(N3CCOCC3)CCC1(c1ccccc1)CC2
> 100 µM: [1] | [2] | [3] | [4] | [17] | [5] | [6] | [7] | [8] | [9] | [10] | [11] | [18] | [12] | [13] | [14] | [15] | [16]

O=c1cc(-c2ccccc2)[nH]c2ccc(S)cc12
84.8 µM: [5]
> 100 µM: [3] | [4] | [17] | [6] | [7] | [9] | [10] | [11] | [19] | [13] | [14] | [15]
55.2 µM: [8]
79.6 µM: [16]
57.7 µM: [2]
51.9 µM: [18]

CCC(=O)NI1OC(=O)c2ccccc21
> 100 µM: [3] | [4] | [17] | [5] | [7] | [8] | [9] | [10] | [11] | [19] | [18] | [12] | [13] | [14] | [16]

CN(C)C1(N(C)C)Oc2c(c(=O)n(C)c(=O)n2C)C(c2ccc(C(F)(F)F)cc2)C1(F)F (stereo not given)
> 100 µM: [4] | [17] | [5] | [6] | [8] | [9] | [10] | [11] | [19] | [18] | [12] | [13] | [14] | [16]

Cn1nc2ccc([N+](=O)[O-])cc2[n+]1[O-]
> 100 µM: [1] | [2] | [4] | [17] | [5] | [6] | [7] | [8] | [9] | [10] | [11] | [19] | [18] | [13] | [15] | [16]

C=C1[C@H]2O[C@H]2[C@@H](OC(C)=O)[C@@]2(C)[C@@H](OC(C)=O)C[C@@H](OC(=O)CCC)[C@@](C)(O)[C@@H]2[C@@H](OC(C)=O)[C@]2(O)[C@@H](C)C(=O)O[C@H]2[C@H]1Cl
> 100 µM: [1] | [2] | [3] | [4] | [17] | [5] | [6] | [8] | [9] | [19] | [18] | [13] | [14] | [16]
